Legend:
[1] = tested on: wheat plants; assay: Wheat grain weight at the milky stages after Ethephon treatment; type: in vivo, wheat (Triticum turgidum var. 'Gdera'); conditions: for grain yield increase by antagonizing Ethephon: fresh weight basis
Procedure: (1) Abscission—This is a very sensitive model system for studying the effects of plant hormones. Ethylene induces the process of abscission, while auxin delays it. In the laboratory the experimental system is based on plant organ explants, which include the abscission zone. Abscission is induced by exposure to ethylene and at the termination of the experiment the number of abscised organs, usually either leaf blades or petioles are counted and the fraction of abscission is calculated. In the case of fruit, the decrease in fruit retention force is analyzed. In cotton, when WS-CPD (the ethylene-action antagonist herein disclosed) is tested, the whole plants or explants are pretreated by spraying with the antagonist, dissolved in a phosphate buffer solution (10-20 mM, pH 7.0) including 0.1% commercially available Kinetic™ as surfactant, and left to incubate for a predetermined time, usually between 6 and 24 h. The plants or explants are then further exposed for 24 h to ethylene gas (5 to 20 μL L^−1). The plants or explants are then ventilated and incubated for the required time under controlled conditions. At the end of the experiment the percentage of abscission is determined. (2) Chlorophyll degradation—This is a standard model for studying senescence. Plant material (whole plants, excised leaves or leaf discs) are pretreated. In cotton, tobacco and wheat, when WS-CPD is tested, the whole plants or explants are pretreated by spraying with the antagonist, dissolved in phosphate buffer solution (10-20 mM, pH 7.0) including 0.1% commercially available Kinetic™ surfactant, and left to incubate for a predetermined time, usually between 6 and 241. The plants or explants are then further exposed for 24 h to ethylene gas (1 to 100 μL L^−1), or sprayed with Ethephon™ (wheat; 250 to 750 μL L^−1). The plants or explants are then ventilated and incubated for the required time under controlled conditions. At the end of the experiment a dimethylsulfoxide (DMSO) extract of the plant tissue is prepared, and the chlorophyll content of the extract is determined by spectrophotometric analysis. The chlorophyll content is reported either on a fresh, dry weight basis, or on a surface area basis. (3) Epinasty—This is also one of the classical methods for studying ethylene effects in plants. The extent of ethylene-induced epinasty of leaves is determined by measuring the change of the angle between the petiole and the stem shoot or blade. After exposure of the intact plant to ethylene, the upright grown leaves bend downward. The increase in the angle values (degrees) between petiole and the stem is used as a measure of the effect of the ethylene. When WS-CPD is tested on cotton and wheat plants, the whole plants are pretreated by spraying with the antagonist dissolved in phosphate buffer solution (10-20 mM, pH 7.6) including 0.1% Kinetic™ as surfactant, and left to incubate for a predetermined time, usually between 6 and 24 h. The plants are then further exposed for 24 h to ethylene gas (cotton, 5 to 10 μL L^−1), or sprayed with Ethephon™ (wheat, 250 to 750 μL L^−1). The plants are then ventilated and incubated for the required time under controlled conditions. The epinastic effect is expressed by measuring the degree values of the downward curvature between the blade and petiole (cotton, FIGS. 1-3) or between the blade and the stem (wheat, FIGS. 31 and 32). (4) Wheat Grain yield—This is a common test of the effects of exposure of monocot plants either to environmental stresses such as drought that induce senescence by increasing endogenous ethylene production. Excessive internal or external ethylene will accelerate senescence which will lead to reduced grain yield. In this project the intact plants were grown in the greenhouse up to the spike hading at milky stage I and II. The plants were then sprayed with the dissolved WS-CPD in phosphate buffer solution (10 mM, pH 7.6) including 0.1% Kinetic™ as surfactant. Young Cotton Seedlings […]

[2] = Solubility in water; type: physicochemical; conditions: 25° C.
Procedure: WS-CPD is highly soluble in water at 25° C. (≧400 mg mL^−1), FIG. 63. Upon heating, decomposition without melting occurs, beginning at 265-270° C.

[3] = pKa and ionisation state; type: physicochemical
Description: The IR spectrum (FIG. 60), UV-VIS spectrum (FIG. 61), and potentiometric titration (FIG. 62) are all consistent with the structure given above for WS-CPD. The IR peak of WS-CPD at C1=1773 cm^−1, and the peak of the C═O stretch in the IR and the UV-VIS peak is λmax 206nm.
Thus, under the normal conditions of use, e.g., pH 7.6-7.8, more than 99% of the compound is present in the anion form. […] The XRD pattern was obtained in a Rigaku Ultima sealed tube theta-theta diffractometer operating at a power level of 1.6 kW, with a step size of 0.02°, angular range of 10-60°, and speed of 0.5°/min. Analysis of the XRD pattern was performed using the Jade 8 program (MDI, Inc.). From the diffraction pattern, it appears that the powdered material is not homogeneous, but rather that there appear to be three distinct structural forms present, namely, an amorphous form, a poor quality crystalline form, and a crystalline form. The presence of the amorphous form is indicated by the prominent diffuse peak centered at 2θ˜23°. Superimposed on this broad peak are a number of sharp peaks, indicating the presence of a crystalline form. […] The effective crystallite sizes of the crystalline form were calculated using the Scherrer formula and found to be in the range of 300-700 Å. […] The following volume fractions were measured: amorphous—57.5%; poorly crystalline—39.5%; crystalline—3%. […]

## O=C([O-])CCC1=CC1.[Na+] [WS-CPD, 3-cyclopropyl-1-enyl-propanoic sodium salt]
[1]; WS-CPD 135 μg mL^−1 pretreatment at milky stage I, both milky stages
  Ethephon-induced decrease of grain weight: prevented the decrease
[1]; WS-CPD 80 to 180 μg mL^−1
  overcoming the Ethephon reduction in grain weight: best results
[1]; milky stage I
  grain yield increase by antagonizing Ethephon: ca. 5%
[1]; milky stage II
  grain yield increase by antagonizing Ethephon: ca. 16%
[2]
  solubility: ≥ 400 mg/mL
[3]; ambient temperature
  pKa: > 4.5
[3]; pH 7.6-7.8
  fraction of the compound present in the anion form: more than 99%
